Key:
Assay in all cases: surface plasmon resonance, protein immobilised on CM5 chip, […] Langmuir fit
Assay type in all cases: binding
rADAMTS13 (rA13) = molecular target: T1, rADAMTS13 (rA13) (Homo sapiens, UniProt Q76LX8)
T1 sequence (Q76LX8 75-1427): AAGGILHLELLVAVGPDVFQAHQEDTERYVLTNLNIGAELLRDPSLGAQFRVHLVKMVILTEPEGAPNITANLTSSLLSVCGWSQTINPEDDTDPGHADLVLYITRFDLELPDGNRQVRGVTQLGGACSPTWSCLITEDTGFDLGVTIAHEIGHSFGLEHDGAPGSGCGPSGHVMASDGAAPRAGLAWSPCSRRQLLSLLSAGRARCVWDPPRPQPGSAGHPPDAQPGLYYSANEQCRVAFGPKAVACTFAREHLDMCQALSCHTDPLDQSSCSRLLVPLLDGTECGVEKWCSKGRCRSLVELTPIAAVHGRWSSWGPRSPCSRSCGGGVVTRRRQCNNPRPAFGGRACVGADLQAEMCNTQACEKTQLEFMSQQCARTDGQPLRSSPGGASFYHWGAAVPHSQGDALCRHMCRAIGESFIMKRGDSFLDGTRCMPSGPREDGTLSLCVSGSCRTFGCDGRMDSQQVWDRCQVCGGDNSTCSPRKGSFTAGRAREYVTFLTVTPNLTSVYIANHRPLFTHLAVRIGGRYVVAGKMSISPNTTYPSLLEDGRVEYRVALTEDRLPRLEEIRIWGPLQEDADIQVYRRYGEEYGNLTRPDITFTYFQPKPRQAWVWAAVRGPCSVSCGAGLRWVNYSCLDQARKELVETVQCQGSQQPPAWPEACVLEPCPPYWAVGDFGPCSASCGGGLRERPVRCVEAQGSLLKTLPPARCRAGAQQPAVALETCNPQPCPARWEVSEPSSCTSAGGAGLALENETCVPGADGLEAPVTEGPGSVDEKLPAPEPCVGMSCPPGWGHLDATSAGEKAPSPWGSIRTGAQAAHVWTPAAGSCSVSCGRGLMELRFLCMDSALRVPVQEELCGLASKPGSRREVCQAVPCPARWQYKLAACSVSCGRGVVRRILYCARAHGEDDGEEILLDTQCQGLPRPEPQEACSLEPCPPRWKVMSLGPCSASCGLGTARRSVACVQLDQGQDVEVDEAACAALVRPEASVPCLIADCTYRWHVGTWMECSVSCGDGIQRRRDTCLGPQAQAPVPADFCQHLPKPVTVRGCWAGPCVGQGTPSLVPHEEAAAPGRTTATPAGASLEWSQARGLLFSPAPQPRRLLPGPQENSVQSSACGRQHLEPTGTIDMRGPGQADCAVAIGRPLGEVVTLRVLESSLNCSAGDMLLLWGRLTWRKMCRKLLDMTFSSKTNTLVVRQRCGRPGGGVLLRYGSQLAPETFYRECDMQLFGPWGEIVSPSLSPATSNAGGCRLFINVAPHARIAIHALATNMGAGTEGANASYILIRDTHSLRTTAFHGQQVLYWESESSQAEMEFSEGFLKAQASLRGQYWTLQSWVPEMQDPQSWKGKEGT

[1] = molecular target: VWF (plasma-derived multimeric VWF) (Homo sapiens, UniProt P04275)
Chain of VWF (plasma-derived multimeric VWF) (P04275 764-2813): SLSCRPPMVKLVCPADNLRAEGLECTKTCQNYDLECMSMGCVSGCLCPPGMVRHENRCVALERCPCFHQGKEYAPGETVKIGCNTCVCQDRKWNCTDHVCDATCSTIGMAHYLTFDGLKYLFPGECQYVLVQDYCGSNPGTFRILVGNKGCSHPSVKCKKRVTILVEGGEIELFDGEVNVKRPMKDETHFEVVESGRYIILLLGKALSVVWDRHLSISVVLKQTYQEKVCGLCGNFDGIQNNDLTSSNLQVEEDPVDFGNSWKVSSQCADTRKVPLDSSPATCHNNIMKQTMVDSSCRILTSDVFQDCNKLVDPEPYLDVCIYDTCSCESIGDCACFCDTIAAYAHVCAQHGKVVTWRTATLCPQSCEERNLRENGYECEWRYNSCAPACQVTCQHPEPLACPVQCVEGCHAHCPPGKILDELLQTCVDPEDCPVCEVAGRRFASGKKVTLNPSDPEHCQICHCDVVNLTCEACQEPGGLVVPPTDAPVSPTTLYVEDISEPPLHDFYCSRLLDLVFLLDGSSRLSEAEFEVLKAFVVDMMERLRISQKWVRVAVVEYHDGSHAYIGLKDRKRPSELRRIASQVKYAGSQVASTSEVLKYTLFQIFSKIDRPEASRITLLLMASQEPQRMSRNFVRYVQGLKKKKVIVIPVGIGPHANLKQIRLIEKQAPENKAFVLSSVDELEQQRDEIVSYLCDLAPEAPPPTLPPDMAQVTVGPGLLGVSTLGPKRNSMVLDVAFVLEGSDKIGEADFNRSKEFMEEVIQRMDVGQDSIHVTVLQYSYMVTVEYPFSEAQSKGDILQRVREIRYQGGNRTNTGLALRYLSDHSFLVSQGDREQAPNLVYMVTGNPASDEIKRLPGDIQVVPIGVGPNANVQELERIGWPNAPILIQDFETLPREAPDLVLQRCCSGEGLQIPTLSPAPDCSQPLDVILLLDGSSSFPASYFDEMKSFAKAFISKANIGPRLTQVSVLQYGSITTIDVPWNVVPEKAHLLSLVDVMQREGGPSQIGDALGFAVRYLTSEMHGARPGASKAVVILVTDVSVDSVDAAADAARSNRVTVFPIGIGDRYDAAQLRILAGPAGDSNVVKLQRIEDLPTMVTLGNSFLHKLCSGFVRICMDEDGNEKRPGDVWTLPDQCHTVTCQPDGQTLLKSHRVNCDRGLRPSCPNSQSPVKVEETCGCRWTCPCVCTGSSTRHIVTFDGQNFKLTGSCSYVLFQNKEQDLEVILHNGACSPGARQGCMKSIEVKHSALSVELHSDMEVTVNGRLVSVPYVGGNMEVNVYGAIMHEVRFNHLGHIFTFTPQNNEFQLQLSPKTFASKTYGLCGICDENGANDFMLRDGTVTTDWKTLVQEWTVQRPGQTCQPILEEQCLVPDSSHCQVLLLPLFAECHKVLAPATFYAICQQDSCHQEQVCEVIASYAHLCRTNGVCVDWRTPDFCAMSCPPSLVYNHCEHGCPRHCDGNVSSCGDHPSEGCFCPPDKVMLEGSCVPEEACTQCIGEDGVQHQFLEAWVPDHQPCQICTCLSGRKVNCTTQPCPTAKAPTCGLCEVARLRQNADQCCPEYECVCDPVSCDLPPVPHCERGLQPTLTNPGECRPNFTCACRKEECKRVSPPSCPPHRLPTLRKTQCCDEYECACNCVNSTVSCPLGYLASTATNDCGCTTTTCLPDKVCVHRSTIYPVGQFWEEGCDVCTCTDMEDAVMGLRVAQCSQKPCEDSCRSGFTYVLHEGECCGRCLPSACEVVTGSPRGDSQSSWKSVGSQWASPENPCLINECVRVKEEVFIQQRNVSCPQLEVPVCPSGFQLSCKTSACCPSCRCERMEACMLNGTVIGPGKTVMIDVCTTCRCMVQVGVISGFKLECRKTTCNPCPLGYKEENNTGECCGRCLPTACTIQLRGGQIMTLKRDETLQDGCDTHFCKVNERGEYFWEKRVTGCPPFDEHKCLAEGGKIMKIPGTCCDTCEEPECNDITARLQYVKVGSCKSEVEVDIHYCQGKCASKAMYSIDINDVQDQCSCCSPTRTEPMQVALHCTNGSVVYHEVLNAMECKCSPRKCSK

[2] = molecular target: GST-rVWF73-H (GST-VWF73-H) (Homo sapiens, UniProt P04275)
Chain of GST-rVWF73-H (GST-VWF73-H) (P04275 1596-1668 limits assumed): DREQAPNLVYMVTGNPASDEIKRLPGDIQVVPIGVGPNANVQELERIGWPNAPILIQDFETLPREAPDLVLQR

For `C=CC1=C(C)/C(=C/c2[nH]c(Cc3[nH]c(/C=C4\NC(=O)C(C)=C4C=C)c(C)c3CCC(=O)O)c(CCC(=O)O)c2C)NC1=O` [unconjugated bilirubin], the Kd (rADAMTS13 (rA13)) was 17.5 ± 4 µM, the Kd [1] was 29.6 ± 40.1 µM and the Kd [2] was 57.5 ± 80.7 µM.

From PMC4599575 (Journal of thrombosis and haemostasis : JTH, 2015)
